Results as given in PubChem BioAssay AID1259407 (Chemical Carcinogenesis Research Information System (CCRIS), 2018).
Calls of active or inactive are those of the source. No rule for the calls is given here.

System: CCRIS mutagenicity, Ames/micronucleus/aberration tests
Assay: CCRIS mutagenicity studies
[1] = Test System: AMES SALMONELLA TYPHIMURIUM, Strain/Indicator: TA97, Metabolic Activation: NONE, Method: PREINCUBATION
[2] = Test System: AMES SALMONELLA TYPHIMURIUM, Strain/Indicator: TA102, Metabolic Activation: NONE, Method: PREINCUBATION
[3] = Test System: AMES SALMONELLA TYPHIMURIUM, Strain/Indicator: TA98, Metabolic Activation: RAT, LIVER, S-9, KC500 OR PHENOBARBITAL, Method: LIQUID SUSPENSION
[4] = Test System: AMES SALMONELLA TYPHIMURIUM, Strain/Indicator: TA100, Metabolic Activation: NONE, Method: PREINCUBATION
[5] = Test System: AMES SALMONELLA TYPHIMURIUM, Strain/Indicator: TA98, Metabolic Activation: NONE, Method: STANDARD PLATE
[6] = Test System: AMES SALMONELLA TYPHIMURIUM, Strain/Indicator: TA98, Metabolic Activation: S-9, Method: STANDARD PLATE
[7] = Test System: AMES SALMONELLA TYPHIMURIUM, Strain/Indicator: TA100, Metabolic Activation: NONE, Method: STANDARD PLATE
[8] = Test System: AMES SALMONELLA TYPHIMURIUM, Strain/Indicator: TA100, Metabolic Activation: S-9, Method: STANDARD PLATE
[9] = Test System: AMES SALMONELLA TYPHIMURIUM, Strain/Indicator: TA1535, Metabolic Activation: NONE, Method: STANDARD PLATE
[10] = Test System: AMES SALMONELLA TYPHIMURIUM, Strain/Indicator: TA1537, Metabolic Activation: NONE, Method: STANDARD PLATE
[11] = Test System: AMES SALMONELLA TYPHIMURIUM, Strain/Indicator: TA98, Metabolic Activation: RAT, LIVER, S-9, AROCLOR 1254, Method: STANDARD PLATE
[12] = Test System: AMES SALMONELLA TYPHIMURIUM, Strain/Indicator: TA100, Metabolic Activation: RAT, LIVER, S-9, AROCLOR 1254, Method: STANDARD PLATE

With `CCNC(=O)CC[C@H](N)C(=O)O` the mutagenic call [1] was “inactive; negative”, the mutagenic call (Test System: AMES SALMONELLA TYPHIMURIUM, Strain/Indicator: TA97, Metabolic Activation: RAT, LIVER, S-9, AROCLOR 1254, Method: PREINCUBATION) was “inactive; negative” and the mutagenic call [2] was “inactive; negative”. The mutagenic call (Test System: AMES SALMONELLA TYPHIMURIUM, Strain/Indicator: TA102, Metabolic Activation: RAT, LIVER, S-9, AROCLOR 1254, Method: PREINCUBATION) was “inactive; negative”.
For `CCN(Cc1cccc(S(=O)(=O)[O-])c1)c1ccc(C(=C2C=CC(=[N+](C)C)C=C2)c2ccc(N(CC)Cc3cccc(S(=O)(=O)O)c3)cc2)cc1`, the mutagenic call (Test System: AMES SALMONELLA TYPHIMURIUM, Strain/Indicator: TA98, Metabolic Activation: HAMSTER, LIVER, S-9, AROCLOR 1254 (30%), Method: PREINCUBATION) was “active; positive”, the mutagenic call (Test System: AMES SALMONELLA TYPHIMURIUM, Strain/Indicator: TA98, Metabolic Activation: NONE, Method: PREINCUBATION) was “inactive; negative” and the mutagenic call (Test System: AMES SALMONELLA TYPHIMURIUM, Strain/Indicator: TA98, Metabolic Activation: RAT, LIVER, S-9, AROCLOR 1254 (30%), Method: PREINCUBATION) was “active; positive”. The mutagenic call [3] was “active; positive”, the mutagenic call (Test System: AMES SALMONELLA TYPHIMURIUM, Strain/Indicator: TA100, Metabolic Activation: HAMSTER, LIVER, S-9, AROCLOR 1254 (30%), Method: PREINCUBATION) was “inactive; negative” and the mutagenic call [4] was “inactive; negative”. For the same molecule, the mutagenic call (Test System: AMES SALMONELLA TYPHIMURIUM, Strain/Indicator: TA100, Metabolic Activation: RAT, LIVER, S-9, AROCLOR 1254 (30%), Method: PREINCUBATION) was “inactive; negative”, the mutagenic call (Test System: Mouse lymphoma, Strain/Indicator: L5178Y (tk+/tk-), Metabolic Activation: None, Method: Suspension/plate) was “active; positive” and the mutagenic call (Test System: Mouse lymphoma, Strain/Indicator: L5178Y (tk+/tk-), Metabolic Activation: Rat,Liver, S-9, Aroclor 1254, Method: Suspension/plate) was “inactive; negative”.
`COc1ccc([N+](=O)[O-])ccc1=O` was tested, and the mutagenic call [3] was “active; positive” and the mutagenic call (Test System: AMES SALMONELLA TYPHIMURIUM, Strain/Indicator: TA100, Metabolic Activation: RAT, LIVER, S-9, KC500 OR PHENOBARBITAL, Method: LIQUID SUSPENSION) was “active; positive”.
With `CC1(C)C(C(=O)OC(C#N)c2cccc(Oc3ccccc3)c2)C1(C)C` (stereo not drawn) the mutagenic call (End Point: In vitro chromasomal aberrations, Test System: Chinese hamster ovary (CHO-K1) cells, Metabolic Activation: None) was “inactive; negative”, the mutagenic call (End Point: In vitro chromasomal aberrations, Test System: Chinese hamster ovary (CHO-K1) cells, Metabolic Activation: Rat, liver, S-9, PCB) was “inactive; negative” and the mutagenic call [5] was “inactive; negative”. For the same molecule, the mutagenic call [6] was “inactive; negative”, the mutagenic call [7] was “inactive; negative” and the mutagenic call [8] was “inactive; negative”. For the same molecule, the mutagenic call [9] was “inactive; negative”, the mutagenic call (Test System: AMES SALMONELLA TYPHIMURIUM, Strain/Indicator: TA1535, Metabolic Activation: S-9, Method: STANDARD PLATE) was “inactive; negative” and the mutagenic call [10] was “inactive; negative”. The mutagenic call (Test System: AMES SALMONELLA TYPHIMURIUM, Strain/Indicator: TA1537, Metabolic Activation: S-9, Method: STANDARD PLATE) was “inactive; negative”, the mutagenic call (Test System: Ames Salmonella typhimurium, Strain/Indicator: TA98, Metabolic Activation: Rat, Liver, S-9, Kanechlor-400, Method: Preincubation) was “inactive; negative” and the mutagenic call (Test System: Ames Salmonella typhimurium, Strain/Indicator: TA100, Metabolic Activation: Rat, Liver, S-9, Kanechlor-400, Method: Preincubation) was “inactive; negative”. For the same molecule, the mutagenic call (Test System: Ames Salmonella typhimurium, Strain/Indicator: TA1535, Metabolic Activation: Rat, Liver, S-9, Kanechlor-400, Method: Preincubation) was “inactive; negative”, the mutagenic call (Test System: Ames Salmonella typhimurium, Strain/Indicator: TA1537, Metabolic Activation: Rat, Liver, S-9, Kanechlor-400, Method: Preincubation) was “inactive; negative” and the mutagenic call (Test System: Ames Salmonella typhimurium, Strain/Indicator: TA1538, Metabolic Activation: Rat, Liver, S-9, Kanechlor-400, Method: Preincubation) was “inactive; negative”. For the same molecule, the mutagenic call (Test System: E. coli, Strain/Indicator: WP2uvrA, Metabolic Activation: Rat, Liver, S-9, Kanechlor-400, Method: Preincubation) was “inactive; negative”.
`C=C1C[C@@]23CC[C@H]4[C@@](C)(CCC[C@@]4(C)C(=O)O[C@@H]4O[C@H](CO)[C@@H](O)[C@H](O)[C@H]4O)[C@@H]2CC[C@]1(O[C@@H]1O[C@H](CO)[C@@H](O)[C@H](O)[C@H]1O[C@@H]1O[C@H](CO)[C@@H](O)[C@H](O)[C@H]1O)C3` was tested, and the mutagenic call [1] was “inactive; negative”, the mutagenic call (Test System: AMES SALMONELLA TYPHIMURIUM, Strain/Indicator: TA97, Metabolic Activation: RAT, LIVER, S-9, PCB, Method: PREINCUBATION) was “inactive; negative” and the mutagenic call (Test System: AMES SALMONELLA TYPHIMURIUM, Strain/Indicator: TA98, Metabolic Activation: RAT, LIVER, S-9, PCB, Method: PREINCUBATION) was “inactive; negative”. For the same molecule, the mutagenic call (Test System: AMES SALMONELLA TYPHIMURIUM, Strain/Indicator: TA98, Metabolic Activation: RAT, LIVER, S-9, SODIUM PHENOBARBITAL AND 5,6-BENZOFLAVONE, Method: PREINCUBATION) was “active; positive”, the mutagenic call [4] was “inactive; negative” and the mutagenic call (Test System: AMES SALMONELLA TYPHIMURIUM, Strain/Indicator: TA100, Metabolic Activation: RAT, LIVER, S-9, PCB, Method: PREINCUBATION) was “inactive; negative”. The mutagenic call (Test System: AMES SALMONELLA TYPHIMURIUM, Strain/Indicator: TA100, Metabolic Activation: RAT, LIVER, S-9, SODIUM PHENOBARBITAL AND 5,6-BENZOFLAVONE, Method: PREINCUBATION) was “inactive; negative”, the mutagenic call [2] was “inactive; negative” and the mutagenic call (Test System: AMES SALMONELLA TYPHIMURIUM, Strain/Indicator: TA102, Metabolic Activation: RAT, LIVER, S-9, PCB, Method: PREINCUBATION) was “inactive; negative”. The mutagenic call (Test System: AMES SALMONELLA TYPHIMURIUM, Strain/Indicator: TA104, Metabolic Activation: NONE, Method: PREINCUBATION) was “inactive; negative”, the mutagenic call (Test System: AMES SALMONELLA TYPHIMURIUM, Strain/Indicator: TA104, Metabolic Activation: RAT, LIVER, S-9, PCB, Method: PREINCUBATION) was “inactive; negative” and the mutagenic call (Test System: AMES SALMONELLA TYPHIMURIUM, Strain/Indicator: TM677, Metabolic Activation: RAT, LIVER, S-9, AROCLOR 1254, Method: PREINCUBATION) was “inactive; negative”.
With `C/C(O)=C1/C(=O)[C@@H]2[C@H]3c4c[nH]c5cccc(c45)C[C@H]3C(C)(C)N2C1=O` the mutagenic call [4] was “inactive; negative” and the mutagenic call (Test System: AMES SALMONELLA TYPHIMURIUM, Strain/Indicator: TA100, Metabolic Activation: RAT, LIVER, S-9, PHENOBARBITAL, Method: PREINCUBATION) was “inactive; negative”.
With `c1ccc2c(c1)ccc1cc3cnccc3cc12` the mutagenic call [11] was “active; positive” and the mutagenic call [12] was “active; positive”.
In the case of `Nc1ccc(-c2ccc(N)c([N+](=O)[O-])c2)cc1[N+](=O)[O-]`, the mutagenic call (Test System: AMES SALMONELLA TYPHIMURIUM, Strain/Indicator: TA98(1,8-DNP6), Metabolic Activation: NONE, Method: STANDARD PLATE) is reported as “inactive; negative”, the mutagenic call (Test System: AMES SALMONELLA TYPHIMURIUM, Strain/Indicator: TA98(1,8-DNP6), Metabolic Activation: S-9, Method: STANDARD PLATE) is reported as “active; positive” and the mutagenic call [5] is reported as “active; positive”. The mutagenic call [6] was “active; positive”, the mutagenic call [7] was “inactive; negative” and the mutagenic call [8] was “active; positive”.
For `COc1cc(N)cc(OC)c1N`, the mutagenic call [5] was “inactive; negative”, the mutagenic call [11] was “inactive; negative” and the mutagenic call [7] was “inactive; negative”. The mutagenic call [12] was “inactive; negative”, the mutagenic call [9] was “inactive; negative” and the mutagenic call (Test System: AMES SALMONELLA TYPHIMURIUM, Strain/Indicator: TA1535, Metabolic Activation: RAT, LIVER, S-9, AROCLOR 1254, Method: STANDARD PLATE) was “inactive; negative”. For the same molecule, the mutagenic call [10] was “inactive; negative”, the mutagenic call (Test System: AMES SALMONELLA TYPHIMURIUM, Strain/Indicator: TA1537, Metabolic Activation: RAT, LIVER, S-9, AROCLOR 1254, Method: STANDARD PLATE) was “inactive; negative” and the mutagenic call (Test System: AMES SALMONELLA TYPHIMURIUM, Strain/Indicator: TA1538, Metabolic Activation: NONE, Method: STANDARD PLATE) was “inactive; negative”. For the same molecule, the mutagenic call (Test System: AMES SALMONELLA TYPHIMURIUM, Strain/Indicator: TA1538, Metabolic Activation: RAT, LIVER, S-9, AROCLOR 1254, Method: STANDARD PLATE) was “inactive; negative”.
